Source: patent publication US20240417743A1, “METHODS FOR IMPROVING GENOME ENGINEERING AND REGENERATION IN PLANT” (KWS SAAT SE & Co. KGaA, priority 2018, published 2024)

System: maize WUS2 promoter
Assay: Maize WUS2 promoter tDT report construct co-bombardment
Assay type: cell-based
Text: Homeobox domain transcriptional factor WUSCHEL (WUS) plays an important role in establishing and maintaining of shoot meristem. To identify boost factors that promote endogenous WUS2 expression, the maize WUSCHEL 2 promoter report construct (pAMK-ZmWUS2-tDT-noT) (SEQ ID NO: 43; FIG. 13) was used to illustrate maize WUS2 promoter activity. The maize WUS2 promoter (pZmWUS2) drove expression of the tDT report gene in this report construct (FIG. 13). The WUS2 promoter report construct was co-bombarded with boost factors individually in maize immature embryos and leaf segments.
Fresh leaf segments of 1-2 cm in length were prepared from the in vitro-cultured maize A188 seedling of 10-14 days old, and placed on the Osmotic medium with abaxial side up for 4 hours. For co-bombardment, two plasmids (100 ng of ZmWUS2 promoter report (FIG. 13) and 100 ng of boost construct, e.g. TaRKD4 (FIG. 5)) were premixed and coated onto 100 μg of gold particles size 0.4 μm. Immature embryo preparation, bombardment, and post-bombardment culturing were carried out as described in Example 1 and Example 2. Red fluorescence showing tDT expression was monitored using a fluorescent microscope started at 16 hours after bombardment.

[1] = A188 leaf segments, after bombardment

wheat RKD4: wheat RKD4 boost gene, expression construct pABM-BdEF1-TaRKD4 (SEQ ID NO: 28)
time at which tDT signal peaked [1]: around 44 hours | time at which tDT signal was detected [1]: around 36 hours | activation of maize WUS2 genes (immature embryos and leaf segments): strongly activate | tDT red fluorescent signals (immature embryos, 44 hours after bombardment, compared to WUS promoter reporter only): extremely strong red fluorescent signals
